Assay results published in US10858384B2, “Synthetic molecule constructs” (KODE BIOTECH LIMITED, priority 2004, dated 2020).

What was measured:
[1] = tested on: endometrial cells and embryos; assay: Attachment of transformed endometrial cells to modified embryos; format: cell-based; conditions: 15 minutes at 37° C.
Method: Modified embryos (BioG-Avidin-BioIgG^B and BioG-Avidin-BioIgM^A) were prepared in accordance with the methods described in the specification accompanying the international application no. PCT/NZ03/00059 (published as WO03/087346).
Two concave glass slides were prepared, one with two wells of synthetic glycolipid Atri-sp-Ad-DOPE (I) inserted endometrial cells and the other with two wells of synthetic glycolipid Btri-sp-Ad-DOPE (VI) inserted endometrial cells.
The embryos were surrounded with endometrial cells. The wells were covered with mineral oil and incubated for 15 minutes at 37° C. Using a wide bore handling pipette each group of embryos were carefully transferred to a fresh drop of M2 media. The embryos were gently washed. The embryos were gently transferred into 2 μL of M2 media on a marked microscope slide. Each drop was overlaid with mineral oil
Under a central plane of focus on an Olympus microscope the number of endometrial cells adhered to the embryos in each group was assessed. The number of cells adhered to each embryo was recorded.

group O RBCs = assay: Diamed agglutination of RBCs transformed at 4° C. with synthetic glycolipids (weak A, B and AB cells); format: cell-based, human; conditions: 0.03 mg/mL, anti-A, time = table row
Method: Transformation of RBCs with synthetic glycolipids Atri-sp-Ad-DOPE (I) and Btri-sp-Ad-DOPE (VI) at 4° C. was then evaluated (Tables 25 to 28). These transformations were directed towards the preparation of cells expressing low levels of A, B or A and B glycotopes (“weak A, B and AB cells”).
For the preparation of weak A and B cells transformation solutions (20 μL, Atri-sp-Ad-DOPE (I) at 0.08, 0.05 and 0.03 mg/mL, and Btri-sp-Ad-DOPE (VI) at 0.6, 0.3, 0.15, 0.08, 0.05 and 0.03 mg/mL) in 1× PBS were mixed with washed, packed group O RBCs (60 μL).
For the preparation of weak AB cells transformation solutions (20 μL, Atrii-sp-Ad-DOPE (I) at 0.07, 0.06 and 0.05 mg/mL, and Btri-sp-Ad-DOPE (VI) at 0.3, and 0.2 mg/mL) in 1× PBS were combined in block titre with washed, packed group O RBCs (60 μL). The combinations were: Atri-sp-Ad-DOPE (I) at 0.07 mg/mL+Btri-sp-Ad-DOPE (VI) at 0.3 mg/mL; Atri-sp-Ad-DOPE (I) at 0.07 mg/mL+Btri-sp-Ad-DOPE (VI) at 0.2 mg/mL; Atri-sp-Ad-DOPE (I) at 0.06 mg/mL+Btri-sp-Ad-DOPE (VI) at 0.3 mg/mL; Atri-sp-Ad-DOPE (I) at 0.06 mg/mL+Btri-sp-Ad-DOPE (VI) at 0.2 mg/mL; Atri-sp-Ad-DOPE (I) at 0.05 mg/mL+Btri-sp-Ad-DOPE (VI) at 0.3 mg/mL; and Atri-sp-Ad-DOPE (I) 0.05+Btri-sp-Ad-DOPE (VI) 0.2 mg/mL.
Cells and transformation solutions were placed in a […] fridge. Pipette mixing was performed at intervals. […]

RBCs = assay: Evaluation of insertion of different lipid tails by agglutination with the relevant antisera; format: cell-based; design: scale not given here
Text: Transformation of RBCs with synthetic glycolipids with different lipid tails was first evaluated (Tables 22 and 24).

CCCCCCCC/C=C\CCCCCCCC(=O)OC[C@H](COP(=O)(O)OCCNC(=O)CCCCC(=O)NCCCO[C@@H]1O[C@H](CO)[C@H](O)[C@H](O[C@H]2O[C@H](CO)[C@H](O)[C@H](O)[C@H]2NC(C)=O)[C@H]1O[C@@H]1O[C@@H](C)[C@@H](O)[C@@H](O)[C@@H]1O)OC(=O)CCCCCCC/C=C\CCCCCCCC [Atri-sp-Ad-DOPE (I)]
2.3: Average number of endometrial cells attached to modified embryos ([1]; embryos modified with BioG-Avidin-BioIgG^B)
0: Agglutination score (group O RBCs; unwashed) | Agglutination score (group O RBCs; washed) | Agglutination score (RBCs; 10 μg/mL, Alba anti-A, first series) | Agglutination score (RBCs; 10 μg/mL, Bio anti-A, first series) | Agglutination score (RBCs; 20 μg/mL, Alba anti-A, first series) | Agglutination score (RBCs; 20 μg/mL, Bio anti-A, first series) | Agglutination score (RBCs; 30 μg/mL, Alba anti-A, first series) | Agglutination score (RBCs; 1000 μg/mL, DBA)
w+: Agglutination score (RBCs; 30 μg/mL, Bio anti-A, first series) | Agglutination score (RBCs; 40 μg/mL, Alba anti-A, first series) | Agglutination score (RBCs; 50 μg/mL, Alba anti-A, first series)
7.25: Average number of endometrial cells attached to modified embryos ([1]; embryos modified with BioG-Avidin-BioIgM^A)
